Experimental data published in patent US20050267016A1, “CD-10 activated prodrug compounds” (priority 2001, published 2005).
pIC50: −log10 of the molar value. Where two headings read alike, the source gives them in different places. Marks after values point to notes of the source that are not given here.

Key:
LNCaP xenografts = experiment: LNCaP xenograft in SCID mice, Q6DX2, equitoxic comparison (Example 27); type: in vivo, C.B-17.SCID mice
Protocol: All compounds except Suc-βAla-Leu-Ala-Leu-Dox (three levels) were dosed at two levels with the goal to get a dose response for all compounds.
Knowing that the LNCaP tumor bearing nude mice have weight loss, we chose very conservative dose levels for each compound estimated to be well-tolerated equitoxic doses based on earlier studies and SD-MTD results. The high dose level for repeat dosing is usually 80% of their SD-MTD, and the low dose level is 80% of the high dose level. Accordingly, groups of ten male CD17.SCID mice, subcutaneously injected with 2.5 million LNCaP cells, were treated intravenously with the compounds at the levels described in Table 22 at six day intervals for a total of two identical doses (Q6DX2).
LNCaP tumors grew well in SCID mice, but the SCID mice with LNCaP tumor xenografts experienced severe weight loss, as 80% of control mice had more than 25% of weight loss by the end of the study. Nevertheless, the efficacy of different treatments at approximately equitoxic levels were compared based on the time it took for 50% of mice to reach toxic weight loss and the total numbers of mice with toxic weight loss at the end of study.

[1] = test system: LNCaP prostate carcinoma xenograft; experiment: LNCaP prostate carcinoma xenograft in nude mice, Q7D × 3 (Examples 30, 31); conditions: for Toxic Endpoint: >20% body weight loss; for Cancer Endpoint: tumors reaching 1000 mg
Protocol: In this model, 7.5 million LNCaP cells resuspended in 0.1 ml of phosphate buffered saline and 0.1 ml of Matrigel (Becton Dickinson) were injected into the side of male nude mice fed on high fat diet.

Namalwa cells (CD10pos) = experiment: cells; type: cell-based; conditions: for pIC50: 24 hours; for Ratio Ball-1:Namalwa: ratio of IC50
Protocol: (§1) Suspension cells, BALL-1, Ramos and Namalwa cells were cultured in RPMI media containing 10% heat inactivated fetal calf serum (FCS). On the day of the study, the cells were collected, washed and resuspended at a concentration of 0.5×10^6 cells/ml in RPMI containing 10% FCS. 100 µl of cell suspension was added to 96 well plates. […] Finally 10 μl of a 100 μCi/ml ^3H-thymidine was added per well and the plates were incubated for 24 hours. The plates were harvested using a 96 well Harvester (Packard Instruments) and counted on a Packard Top Count counter. Four parameter logistic curves were fitted to the ^3H-thymidine incorporation as a function of drug molarity using Prism software to determine IC50 values.

BALL-1 cells (CD10neg) = experiment: cells
Protocol: as §1
(§2) The effect of two known inhibitors of CD10 on prodrug activity in Ramos, LNCaP and Ball-1 cells was evaluated. The IC50 of Suc-βAla-Ile-Ala-Leu-Dox was determined in the presence of increasing concentration of the CD10 inhibitors, phosphoramidon and thiorphan.

Ramos cells (CD10pos) = experiment: cells; conditions: for Ratio Ball-1:Ramos: ratio of IC50
Protocol: as §1, §2

[2] = test system: LNCaP (prostate carcinoma) cells
Protocol: (§3) Adherent cells, LNCaP (prostate carcinoma), HT-29 (colon carcinoma) and PC-3 (prostate carcinoma), were cultured in DMEM media containing 10% heat inactivated fetal calf serum (FCS). On the day of the study the cells were detached from the plate with a trypsin solution. The collected cells were washed and resuspended at a concentration of 0.25×10^6 cells/ml in DMEM containing 10% FCS. 100 μl of cell suspension were added to 96 well plates and the plates were incubated for 3 hours to allow the cells to adhere. […] The plates were then incubated for 24 hours, pulsed with 10 μl of a 100 μCi/ml ^3H-thymidine and incubated for an additional 24 hours (total incubation time 48 hours). The plates were harvested using a 96 well Harvester (Packard Instruments) and counted on a Packard Top Count Counter. Four parameter logistic curves were fitted to the ^3H-thymidine incorporation as a function of drug molarity using Prism software to determine IC50 values.
as §3, with “carcinoma), PC-3 (prostate” for “carcinoma), HT-29 (colon”, “and 22 RV1” for “and PC-3”, “with 1:0” for “with 10”
as §2

normal ICR mice = experiment: Second single dose Maximum Tolerated Dose (SD-MTD) study, 49 days; conditions: for SD-MTD Molar Ratio (Dox=): relative to doxorubicin on a molar basis
Protocol: In a second single dose Maximum Tolerated Dose (SD-MTD) study, groups of five normal ICR mice were administered intravenous bolus doses of Suc-βAla-Leu-Ala-Leu-Dox. The mice were observed daily for 49 days and body weights measured twice weekly.
In a second single dose Maximum Tolerated Dose (SD-MTD) study, groups of five normal ICR mice were administered intravenous bolus doses of Suc-Leu-Ala-Leu-Dox. The mice were observed daily for 49 days and body weights measured twice weekly.
In a second single dose Maximum Tolerated Dose (SD-MTD) study, groups of five normal ICR mice were administered intravenously bolus doses of Suc-Ile-Ala-Leu-Dox. The mice were observed daily for 49 days and body weights measured twice weekly.
In a second single dose Maximum Tolerated Dose (SD-MTD) study, groups of five normal ICR mice were administered intravenous bolus doses of Suc-βAla-Ile-Ala-Leu-Dox. The mice were observed daily for 49 days and body weights measured twice weekly.

COc1cccc2c1C(=O)c1c(O)c3c(c(O)c1C2=O)C[C@@](O)(C(=O)CO)C[C@@H]3O[C@H]1C[C@H](N)[C@H](O)[C@H](C)O1 [Doxorubicin, reference compound]
% Weight Loss at the end of study (LNCaP xenografts; 3 mg/kg Q6DX2): 60%
Growth Inhibition (LNCaP xenografts; 3 mg/kg Q6DX2): 29%
Time: 50% Weight Loss (LNCaP xenografts; 3 mg/kg Q6DX2): 36 days
Growth Inhibition (LNCaP xenografts; 4 mg/kg Q6DX2): 29%
% Weight Loss at the end of study (LNCaP xenografts; 4 mg/kg Q6DX2, mice with toxic weight loss): 80%
Time: 50% Weight Loss (LNCaP xenografts; 4 mg/kg Q6DX2, time for 50% of mice to reach toxic weight loss): 33 days
TGI D22 ([1]; 4 mg/kg Q7D × 3): 52.2 ± 28.8%
Tumor Weight (mg) D22 ([1]; 4 mg/kg Q7D × 3): 323.8 ± 60.8 mg
loss of group mean adjusted body weight ([1]; 4 mg/kg Q7D × 3, Day 22): about 7%
Survivor D36 ([1]; 4 mg/kg Q7D × 3, N 8): D36: 3
Toxic Endpoint ([1]; 4 mg/kg Q7D × 3): 1
Cancer Endpoint ([1]; 4 mg/kg Q7D × 3): 4
pIC50 (Namalwa cells (CD10pos)): 8.00
pIC50 (BALL-1 cells (CD10neg); Homo sapiens, BALL-1, 24 h, read-out: IC50 Ball-1): 7.70
pIC50 (Ramos cells (CD10pos); Homo sapiens, Ramos, 24 h, read-out: IC50 Ramos): 8.00
pIC50 (Ramos cells (CD10pos); Homo sapiens, Ramos, read-out: IC50 Ramos): 8.00

CC[C@H](C)[C@H](NC(=O)CCC(=O)O)C(=O)N[C@@H](C)C(=O)N[C@@H](CC(C)C)C(=O)N[C@H]1C[C@H](O[C@H]2C[C@](O)(C(=O)CO)Cc3c(O)c4c(c(O)c32)C(=O)c2c(OC)cccc2C4=O)O[C@@H](C)[C@H]1O [Suc-Ile-Ala-Leu-Dox]
Ratio PC-3:LNCaP ([2]; ratio of IC50): 83
pIC50 ([2]; read-out: IC50 LNCAP, 48 hours total incubation): 5.96
Time: 50% Weight Loss (LNCaP xenografts; 75 mg/kg Q6DX2): 26 days
Time: 100% Weight Loss (LNCaP xenografts; 75 mg/kg Q6DX2): 43 days
Time: 50% Weight Loss (LNCaP xenografts; 94 mg/kg Q6DX2): 19 days
Time: 100% Weight Loss (LNCaP xenografts; 94 mg/kg Q6DX2): 36 days
pIC50 (Namalwa cells (CD10pos)): 5.19
Ratio Ball-1:Namalwa (Namalwa cells (CD10pos)): 4
SD-MTD (normal ICR mice; intravenous bolus, Day 49): 94 mg/kg
SD-MTD Molar Ratio (Dox=) (normal ICR mice): 3.5
pIC50 (BALL-1 cells (CD10neg); read-out: IC50 Ball-1, 24 hours): 4.59
Ratio Ball-1:Ramos (Ramos cells (CD10pos)): 4
pIC50 (Ramos cells (CD10pos); read-out: IC50 Ramos, 24 hours): 5.19

CC[C@H](C)[C@H](NC(=O)CCNC(=O)CCC(=O)O)C(=O)N[C@@H](C)C(=O)N[C@@H](CC(C)C)C(=O)N[C@H]1C[C@H](O[C@H]2C[C@](O)(C(=O)CO)Cc3c(O)c4c(c(O)c32)C(=O)c2c(OC)cccc2C4=O)O[C@@H](C)[C@H]1O [Suc-βAla-Ile-Ala-Leu-Dox]
pIC50 ([2]; 48 h): 6.82
Ratio Suc-β-Ala-Ile-Ala-Leu/Dox ([2]; LnCap, ratio of IC50): 3
Ratio PC-3:LNCaP ([2]; ratio of IC50): 300
% Weight Loss at the end of study (LNCaP xenografts; 50 mg/kg Q6DX2): 80%
Time: 50% Weight Loss (LNCaP xenografts; 50 mg/kg Q6DX2): 33 days
Time: 50% Weight Loss (LNCaP xenografts; 62 mg/kg Q6DX2): 12 days
Time: 100% Weight Loss (LNCaP xenografts; 62 mg/kg Q6DX2): 33 days
Tumor Weight (mg) D22 ([1]; 40 mg/kg (22 Dox equi) Q7D × 3): D22: 152.1 ± 19.3 mg
TGI D22 ([1]; 40 mg/kg (22 Dox equi) Q7D × 3, listed as Suc-bAla-Ile-Ala-Leu-Dox): 77.5 ± 27.5%
Survivor D36 ([1]; 40 mg/kg Q7D × 3, N 8): D36: 8**
Toxic Endpoint ([1]; 40 mg/kg Q7D × 3): 0
Cancer Endpoint ([1]; 40 mg/kg Q7D × 3): 0
Ratio Ball-1:Namalwa (Namalwa cells (CD10pos)): 172
animals euthanized due to weight loss or paralysis (normal ICR mice; 100 mg/kg, by Day 21, groups of five): three
SD-MTD Molar Ratio (Dox=) (normal ICR mice): 2.6
pIC50 (BALL-1 cells (CD10neg); 24 h): 4.30
pIC50 (Ramos cells (CD10pos); 24 h): 6.38
Ratio Ball-1:Ramos (Ramos cells (CD10pos)): 120

COc1cccc2c1C(=O)c1c(O)c3c(c(O)c1C2=O)C[C@@](O)(C(=O)CO)C[C@@H]3O[C@H]1C[C@H](NC(=O)[C@H](CC(C)C)NC(=O)[C@H](C)NC(=O)[C@H](CC(C)C)NC(=O)CCNC(=O)CCC(=O)O)[C@H](O)[C@H](C)O1 [Suc-βAla-Leu-Ala-Leu-Dox]
pIC50 [2]: 6.29
pIC50 ([2]; 48 h): 6.06
shift of IC50 ([2]; LNCaP cells treated with 100 nM of phosphoramidon (data not shown)): 7 fold
Ratio PC-3:LNCaP ([2]; ratio of IC50): 32
Time: 50% Weight Loss (LNCaP xenografts; 40 mg/kg Q6DX2): 33 days
Time: 100% Weight Loss (LNCaP xenografts; 40 mg/kg Q6DX2): 54 days
Time: 50% Weight Loss (LNCaP xenografts; 50 mg/kg Q6DX2): 19 days
Time: 100% Weight Loss (LNCaP xenografts; 50 mg/kg Q6DX2): 40 days
Time: 50% Weight Loss (LNCaP xenografts; 62 mg/kg Q6DX2): 15 days
Time: 100% Weight Loss (LNCaP xenografts; 62 mg/kg Q6DX2): 33 days
TGI D22 ([1]; 32 mg/kg (18 Dox equi) Q7D × 3): 82.8 ± 27.7%
Tumor Weight (mg) D22 ([1]; 32 mg/kg (18 Dox equi) Q7D × 3): 116.3 ± 30.2 mg
Survivor D36 ([1]; 32 mg/kg Q7D × 3, N 8): 8**
Toxic Endpoint ([1]; 32 mg/kg Q7D × 3): 0
Cancer Endpoint ([1]; 32 mg/kg Q7D × 3): 0
Toxic Endpoint ([1]; 40 mg/kg Q7D × 3): 0
Cancer Endpoint ([1]; 40 mg/kg Q7D × 3): 0
TGI D22 ([1]; 50 mg/kg (28 Dox equi) Q7D × 3): 78.8 ± 27.5%
Tumor Weight (mg) D22 ([1]; 50 mg/kg (28 Dox equi) Q7D × 3): 143.4 ± 19.0 mg
Survivor D36 ([1]; 50 mg/kg Q7D × 3, N 8): 8**
Toxic Endpoint ([1]; 50 mg/kg Q7D × 3): 0
Cancer Endpoint ([1]; 50 mg/kg Q7D × 3): 0
maximal loss of group mean adjusted body weight ([1]; all three doses (32, 40, 50 mg/kg) Q7D × 3, to Day 36): ≤ 3%
Ratio Ball-1:Namalwa (Namalwa cells (CD10pos)): 3
mortality (normal ICR mice; 75 mg/kg dose group, by Day 35): 40%
pIC50 (BALL-1 cells (CD10neg); 24 h): 4.77
pIC50 (Ramos cells (CD10pos)): 6.08
pIC50 (Ramos cells (CD10pos); 24 h): 5.16
Ratio Ball-1:Ramos (Ramos cells (CD10pos)): 2
